Measurements from article PMC8486872, “A rational blueprint for the design of chemically-controlled protein switches” (Nature Communications, 2021).
Several values for one entry are separate records, joined by “and”; a condition that tells them apart may be missing. Equal entries are not always repeated.

Key:
Format in all cases: cell-based
[1] = system: SEAP and Luciferase expression in HEK293T cells; experiment: MIMO designer cells (AIR-1/2-GEMS + CDH-3-TF); details: for SEAP: Fig5c, turn ON via AIR-2-GEMS
From the text: We first engineered MIMO cells to respond to two drugs with distinct outputs (Fig. 5a) by co-transfecting the CDH-3-TF with either AIR-1-GEMS (Fig. 5b) or AIR-2-GEMS (Fig. 5c).
Fig. 5 Orthogonal chemical switches enable implementation of multi-input multi-output control modes in mammalian cells. a Scheme of multi-inputs multi-outputs (MIMO) designer cells where two drugs control two different outputs. b, c Cells were co-transfected with AIR-1/2-GEMS and CDH-3-TF regulate SEAP and Luciferase expression, respectively. […] AIR-1/2-GEMS coupled with SEAP expression circuits were co-transfected with CDH-1/2-TF circuits which control the Luciferase production. Respective drug concentrations ranged from 0.001 nM to 1 µM. All values presented are mean ± s.d. of three replicates and curves were fitted by four-parameters nonlinear regression. b, c, e, f, h, i Source data are available in the source data file.
Supplementary Figure 13: Orthogonal chemical switches enable implementation of multi-input multi-output control modes in mammalian cells. a) Dual drug toxicity tests in 293T cells. […]
concentrations of 1 nM, 10 nM, 100 nM and 1000 nM each drug in cell culture medium. CCK8 assay was performed 24 hours after drug treatment. Each bar represents the mean of three biological replicates ± s.d, overlaid with a scatter dot plot of the original data points. b-c) Cells were co-transfected with AIR-1-GEMS and CDH-3-TF regulate SEAP and Luciferase expression, respectively. Drug concentrations ranged from 0.001 nM to 1 µM and different combinations were added depending on the protein components, Drug-1 only (b) and Drug-3 only (c). d-e) Cells were co-transfected with AIR-2-GEMS and CDH-3-TF regulate SEAP and Luciferase expression, respectively. Drug concentrations ranged from 0.001 nM to 1 µM and different combinations were added depending on the protein […]
1-TF and CDH-3-TF circuits. Drug-1 concentrations ranged from 0.001 nM to 1 µM (left) and 1 µM Drug-1 with serial diluted Drug-3 from 0.001 nM to 1 µM (right). g) Quantification of SEAP activity controlled by CDH-1-GEMS and CDH-3-GEMS circuits. Drug-1 concentrations ranged from 0.001 nM to 1 µM (left) and Drug-3 dilution along with 1 µM Drug-1 (right). h-i) Quantification of SEAP and Luciferase activities under Drug-1. AIR-1-GEMS coupled with SEAP expression circuits (i) and CDH-1-TF circuits which control the Luciferase production (j). j-k) Quantification of SEAP and Luciferase activities under Drug-2. AIR-2-GEMS coupled with SEAP expression circuits (k) and CDH-2-TF circuits which control the Luciferase production (l). b-k) Each data point represents the mean of n = 3 biological replicates, and the dose-dependent curve were fitted using four-parameter nonlinear regression.

[2] = system: Gal4/UAS SEAP expression in HEK293T cells; experiment: Drug specificity of CDH-TFs; details: Suppl Fig 7b
Experimental: Supplementary Figure 7: Dose-dependence and reversibility characterization of CDHs in CDH-
a) Background signal of SEAP reporter in the absence of the CDH-TF system. HEK239T cells were
(§1) transfected with SEAP reporter S132 and treated with 1 µM Drugs 12 hours post transfection.
(§2) Quantification of SEAP was performed 24 hours after drug treatment. b) Drug specificity of CDH-TFs. […]

[3] = system: SEAP expression in HEK293T cells; experiment: Background signal of SEAP reporter and single-construct controls
Experimental: Supplementary Figure 7: Dose-dependence and reversibility characterization of CDHs in CDH- […]
as §1, §2
Background signal of SEAP reporter in the absence of the CDH-GEMS system. HEK293T cells were transfected with pLS566 SEAP reporter plasmids and treated with drugs. Quantification of SEAP was performed 24 hours post drug treatment. f) SEAP activity upon transfecting single or paired […]
Quantification of SEAP activity of three CDHs with DMSO (dark color), specific (light color) and unspecific drug treatment (gray). […]
(culture medium) in panels of b, c, f and g were collected every 12 hours. Values were normalized to zero based on the SEAP expression at time 0. a, b, e, f, g) The bar charts show the mean ± s.d. of n = 3 biologically independent samples overlaid with a scatter dot plot of the original data points.

[4] = Suppl Fig 7a, TF reporter (S132) only
[5] = Suppl Fig 7e, GEMS reporter (pLS566) only
[6] = Fig5c SEAP via AIR-2-GEMS, four-parameter fit

Compound: CN(C)CC#Cc1ccc(OCCCc2sc(N3CCc4cccc(C(=O)Nc5nc6ccccc6s5)c4C3)nc2C(=O)O)c(F)c1 [Drug-1, A-1155463]
- AIR-1-GEMS controlled SEAP expression ([1]; Fig S13b, Drug-1 0.01 nM): 2.034 U/L and 2.266 U/L and 2.426 U/L
- CDH-3-TF controlled Luciferase expression ([1]; Fig S13b, Drug-1 0.01 nM): 63197 RLU and 77075 RLU and 76343 RLU
- AIR-1-GEMS controlled SEAP expression ([1]; Fig S13b, Drug-1 0.1 nM): 2.577 U/L and 3.504 U/L and 1.937 U/L
- CDH-3-TF controlled Luciferase expression ([1]; Fig S13b, Drug-1 0.1 nM): 69663 RLU and 84855 RLU and 75827 RLU
- AIR-1-GEMS controlled SEAP expression ([1]; Fig S13b, Drug-1 1 nM): 2.677 U/L and 2.7744 U/L and 2.999 U/L
- CDH-3-TF controlled Luciferase expression ([1]; Fig S13b, Drug-1 1 nM): 81097 RLU and 77144 RLU and 82001 RLU
- AIR-1-GEMS controlled SEAP expression ([1]; Fig S13b, Drug-1 3.16 nM): 4.756 U/L and 3.455 U/L and 4.71 U/L
- CDH-3-TF controlled Luciferase expression ([1]; Fig S13b, Drug-1 3.16 nM): 79328 RLU and 72559 RLU and 71332 RLU
- AIR-1-GEMS controlled SEAP expression ([1]; Fig S13b, Drug-1 10 nM): 14.6262 U/L and 14.8753 U/L and 12.6214 U/L
- CDH-3-TF controlled Luciferase expression ([1]; Fig S13b, Drug-1 10 nM): 80379 RLU and 81140 RLU and 95805 RLU
- AIR-1-GEMS controlled SEAP expression ([1]; Fig S13b, Drug-1 31.6 nM): 24.9389 U/L and 23.1767 U/L and 24.3137 U/L
- CDH-3-TF controlled Luciferase expression ([1]; Fig S13b, Drug-1 31.6 nM): 89062 RLU and 83795 RLU and 94983 RLU
- AIR-1-GEMS controlled SEAP expression ([1]; Fig S13b, Drug-1 100 nM): 28.6367 U/L and 35.4252 U/L and 28.7763 U/L
- CDH-3-TF controlled Luciferase expression ([1]; Fig S13b, Drug-1 100 nM): 85794 RLU and 82597 RLU and 83527 RLU
- AIR-1-GEMS controlled SEAP expression ([1]; Fig S13b, Drug-1 316 nM): 33.0089 U/L and 34.8793 U/L and 29.7782 U/L
- CDH-3-TF controlled Luciferase expression ([1]; Fig S13b, Drug-1 316 nM): 82096 RLU and 72932 RLU and 89789 RLU
- AIR-1-GEMS controlled SEAP expression ([1]; Fig S13b, Drug-1 1000 nM): 37.3806 U/L and 38.9993 U/L and 31.1376 U/L
- CDH-3-TF controlled Luciferase expression ([1]; Fig S13b, Drug-1 1000 nM): 73138 RLU and 75381 RLU and 85198 RLU
- Reporter signal, drug specificity ([2]; CDH1): 10.7853 and 9.721 and 10.2555
- Reporter signal, drug specificity ([2]; CDH3): 120.91 and 123.106 and 130.139
- Reporter background signal [3, 4]: 2.1563 and 2.182 and 2.388
- Reporter background signal [3, 5]: 2.888 and 3.062 and 3.039

Compound: CC1(C)CCC(CN2CCN(c3ccc(C(=O)NS(=O)(=O)c4ccc(NCC5CCOCC5)c([N+](=O)[O-])c4)c(Oc4cnc5[nH]ccc5c4)c3)CC2)=C(c2ccc(Cl)cc2)C1 [Drug-2, Venetoclax]
- Bottom (best-fit value) [1, 6]: 11.58
- HillSlope (best-fit value) [1, 6]: 0.4637
- Span (best-fit value) [1, 6]: 174.4
- Top (best-fit value) [1, 6]: 186
- logIC50 (best-fit value) ([1]; Fig5c SEAP via AIR-2-GEMS, four-parameter fit, drug in nM): 2.821
- SEAP ([1]; 0.1 nM): 16.9661 U/L and 14.3649 U/L and 16.0293 U/L
- SEAP ([1]; 0.5 nM): 32.7217 U/L and 18.5086 U/L and 20.3629 U/L
- SEAP ([1]; 1 nM): 9.507 U/L and 8.828 U/L and 9.449 U/L
- SEAP ([1]; 5 nM): 12.4048 U/L and 14.8898 U/L and 15.5553 U/L
- SEAP ([1]; 10 nM): 53.9453 U/L and 51.1 U/L and 44.2357 U/L
- SEAP ([1]; 50 nM): 67.8694 U/L and 53.3505 U/L and 65.0318 U/L
- SEAP ([1]; 500 nM): 99.6195 U/L and 87.3604 U/L and 83.3391 U/L
- SEAP ([1]; 1000 nM): 116.832 U/L
- AIR-2-GEMS controlled SEAP expression ([1]; Fig S13d, Drug-2 0.01 nM): 59.8517 U/L and 85.418 U/L and 69.2527 U/L
- CDH-3-TF controlled Luciferase expression ([1]; Fig S13d, Drug-2 0.01 nM): 46959 RLU and 46941 RLU and 46901 RLU
- AIR-2-GEMS controlled SEAP expression ([1]; Fig S13d, Drug-2 0.1 nM): 118.67 U/L and 114.835 U/L and 107.758 U/L
- CDH-3-TF controlled Luciferase expression ([1]; Fig S13d, Drug-2 0.1 nM): 41162 RLU and 49637 RLU and 46127 RLU
- AIR-2-GEMS controlled SEAP expression ([1]; Fig S13d, Drug-2 1 nM): 115.899 U/L and 181.597 U/L and 152.021 U/L
- CDH-3-TF controlled Luciferase expression ([1]; Fig S13d, Drug-2 1 nM): 45977 RLU and 44865 RLU and 47068 RLU
- AIR-2-GEMS controlled SEAP expression ([1]; Fig S13d, Drug-2 3.14 nM): 134.444 U/L and 173.229 U/L and 165.776 U/L
- CDH-3-TF controlled Luciferase expression ([1]; Fig S13d, Drug-2 3.14 nM): 43947 RLU and 39268 RLU and 39254 RLU
- AIR-2-GEMS controlled SEAP expression ([1]; Fig S13d, Drug-2 10 nM): 190.854 U/L and 240.534 U/L and 260.228 U/L
- CDH-3-TF controlled Luciferase expression ([1]; Fig S13d, Drug-2 10 nM): 47016 RLU and 49191 RLU and 50470 RLU
- AIR-2-GEMS controlled SEAP expression ([1]; Fig S13d, Drug-2 31.4 nM): 299.546 U/L and 359.696 U/L and 315.099 U/L
- CDH-3-TF controlled Luciferase expression ([1]; Fig S13d, Drug-2 31.4 nM): 45761 RLU and 44242 RLU and 45130 RLU
- AIR-2-GEMS controlled SEAP expression ([1]; Fig S13d, Drug-2 100 nM): 326.848 U/L and 345.031 U/L and 379.553 U/L
- CDH-3-TF controlled Luciferase expression ([1]; Fig S13d, Drug-2 100 nM): 45390 RLU and 42062 RLU and 45223 RLU
- AIR-2-GEMS controlled SEAP expression ([1]; Fig S13d, Drug-2 314 nM): 491.977 U/L and 483.914 U/L and 518.642 U/L
- CDH-3-TF controlled Luciferase expression ([1]; Fig S13d, Drug-2 314 nM): 40043 RLU and 38537 RLU and 34569 RLU
- AIR-2-GEMS controlled SEAP expression ([1]; Fig S13d, Drug-2 1000 nM): 386.41 U/L and 334.548 U/L and 408.363 U/L
- CDH-3-TF controlled Luciferase expression ([1]; Fig S13d, Drug-2 1000 nM): 40262 RLU and 37715 RLU and 45464 RLU
- IC50 ([1]; Homo sapiens, HEK-293T, Fig5c SEAP turn ON via AIR-2-GEMS, four-parameter fit, given as IC50, read-out: IC50 (best-fit value)): 0.662 µM
- Reporter signal, drug specificity ([2]; CDH2): 31.2802 and 28.6812 and 29.088
- Reporter background signal [3, 4]: 2.167 and 2.065 and 2.282
- Reporter background signal [3, 5]: 2.782 and 3.488 and 3.279
